Experimental data from ChEMBL document CHEMBL1122946, “Folate antagonists. 21. Synthesis and antimalarial properties of 2,4-diamino-6-(benzylamino)pyrido[3,2-d]pyrimidines” (1985).

Key:
[1] = tested on: Mus musculus; assay: Mean survival time against trophozoite induced Plasmodium berghei in mice minus control was evaluated at a dose 640 mg/kg; 10 toxic death occurred out of 10 animals on days 2-5 after injection; type: functional, organism-based; set-up: dose 640 mg/kg
[2] = tested on: Mus musculus; assay: Mean survival time against trophozoite induced Plasmodium berghei in mice minus control was evaluated at a dose 20 mg/kg.; type: functional
[3] = tested on: Mus musculus; assay: Mean survival time against trophozoite induced Plasmodium berghei in mice minus control was evaluated at a dose 80 mg/kg; 5 survived out of 5 animals at 60 days postinjection; type: functional, organism-based; set-up: dose 80 mg/kg
[4] = tested on: Mus musculus; assay: Mean survival time against trophozoite induced Plasmodium berghei in mice minus control was evaluated at a dose 40 mg/kg; 4 survived out of 10 animals at 60 days postinjection; type: functional, organism-based; set-up: dose 40 mg/kg
[5] = tested on: Mus musculus; assay: Mean survival time against trophozoite induced Plasmodium berghei in mice minus control was evaluated at a dose 320 mg/kg; 3 toxic death occurred out of 5 animals on days 2-5 after injection; type: functional, organism-based; set-up: dose 320 mg/kg
[6] = tested on: Mus musculus; assay: Mean survival time against trophozoite induced Plasmodium berghei in mice minus control was evaluated at a dose 160 mg/kg; 2 toxic death occurred out of 10 animals on days 2-5 after injection; type: functional, organism-based; set-up: dose 160 mg/kg
[7] = tested on: Mus musculus; assay: Mean survival time against trophozoite induced Plasmodium berghei in mice minus control was evaluated at a dose 640 mg/kg; 9 survived out of 15 animals at 60 days postinjection.; type: functional, organism-based; set-up: dose 640 mg/kg
[8] = tested on: Mus musculus; assay: Mean survival time against trophozoite induced Plasmodium berghei in mice minus control was evaluated at a dose 80 mg/kg; 1 survived out of 5 animals at 60 days postinjection; type: functional, organism-based; set-up: dose 80 mg/kg
[9] = tested on: Mus musculus; assay: Mean survival time against trophozoite induced Plasmodium berghei in mice minus control was evaluated at a dose 160 mg/kg; 6 survived out of 15 animals at 60 days postinjection; type: functional, organism-based; set-up: dose 160 mg/kg
[10] = tested on: Mus musculus; assay: Mean survival time against trophozoite induced Plasmodium berghei in mice minus control was evaluated at a dose 320 mg/kg; 3 survived out of 5 animals at 60 days postinjection; type: functional, organism-based; set-up: dose 320 mg/kg
[11] = tested on: Mus musculus; assay: Mean survival time against trophozoite induced Plasmodium berghei in mice minus control was evaluated at a dose 40 mg/kg.; type: functional
[12] = tested on: Mus musculus; assay: Mean survival time against trophozoite induced Plasmodium berghei in mice minus control was evaluated at a dose 640 mg/kg.; type: functional
[13] = tested on: Mus musculus; assay: Mean survival time against trophozoite induced Plasmodium berghei in mice minus control was evaluated at a dose 160 mg/kg; 1 survived out of 5 animals at 60 days postinjection.; type: functional, organism-based; set-up: dose 160 mg/kg
[14] = tested on: Mus musculus; assay: Mean survival time against trophozoite induced Plasmodium berghei in mice minus control was evaluated at a dose 320 mg/kg.; type: functional
[15] = tested on: Mus musculus; assay: Mean survival time against trophozoite induced Plasmodium berghei in mice minus control was evaluated at a dose 80 mg/kg; 4 survived out of 5 animals at 60 days postinjection.; type: functional, organism-based; set-up: dose 80 mg/kg
[16] = tested on: Mus musculus; assay: Mean survival time against trophozoite induced Plasmodium berghei in mice minus control was evaluated at a dose 40 mg/kg; 8 survived out of 10 animals at 60 days postinjection.; type: functional, organism-based; set-up: dose 40 mg/kg
[17] = tested on: Mus musculus; assay: Mean survival time against trophozoite induced Plasmodium berghei in mice minus control was evaluated at a dose 160 mg/kg; 5 survived out of 5 animals at 60 days postinjection.; type: functional, organism-based; set-up: dose 160 mg/kg
[18] = tested on: Mus musculus; assay: Mean survival time against trophozoite induced Plasmodium berghei in mice minus control was evaluated at a dose 80 mg/kg; type: functional
[19] = tested on: Mus musculus; assay: Mean survival time against trophozoite induced Plasmodium berghei in mice minus control was evaluated at a dose 320 mg/kg; 10 survived out of 10 animals at 60 days postinjection.; type: functional, organism-based; set-up: dose 320 mg/kg
[20] = tested on: Mus musculus; assay: Mean survival time against trophozoite induced Plasmodium berghei in mice minus control was evaluated at a dose 160 mg/kg.; type: functional
[21] = tested on: Mus musculus; assay: Mean survival time against trophozoite induced Plasmodium berghei in mice minus control was evaluated at a dose 160 mg/kg; 5 cured at 60 days postinjection.; type: functional, organism-based; set-up: dose 160 mg/kg
[22] = tested on: Mus musculus; assay: Mean survival time against trophozoite induced Plasmodium berghei in mice minus control was evaluated at a dose 640 mg/kg; 1 cured and 2 toxic death; type: functional, organism-based; set-up: dose 640 mg/kg
[23] = tested on: Mus musculus; assay: Mean survival time against trophozoite induced Plasmodium berghei in mice minus control was evaluated at a dose 320 mg/kg; 2 cured and 3 toxic death; type: functional, organism-based; set-up: dose 320 mg/kg
[24] = tested on: Mus musculus; assay: Mean survival time against trophozoite induced Plasmodium berghei in mice minus control was evaluated at a dose 5 mg/kg.; type: functional
[25] = tested on: Mus musculus; assay: Mean survival time against trophozoite induced Plasmodium berghei in mice minus control was evaluated at a dose 40 mg/kg; 1 cured at 60 days postinjection.; type: functional, organism-based; set-up: dose 40 mg/kg
[26] = tested on: Mus musculus; assay: Mean survival time against trophozoite induced Plasmodium berghei in mice minus control was evaluated at a dose 1.25 mg/kg.; type: functional
[27] = tested on: Mus musculus; assay: Mean survival time against trophozoite induced Plasmodium berghei in mice minus control was evaluated at a dose 10 mg/kg.; type: functional
[28] = tested on: Mus musculus; assay: Mean survival time against trophozoite induced Plasmodium berghei in mice minus control was evaluated at a dose 80 mg/kg; 3 cured at 60 days postinjection.; type: functional, organism-based; set-up: dose 80 mg/kg
[29] = tested on: Mus musculus; assay: Mean survival time against trophozoite induced Plasmodium berghei in mice minus control was evaluated at a dose 2.5 mg/kg.; type: functional
[30] = tested on: Mus musculus; assay: Mean survival time against trophozoite induced Plasmodium berghei in mice minus control was evaluated at a dose 640 mg/kg; 5 toxic death occurred out of 5 animals on days 2-5 after injection.; type: functional, organism-based; set-up: dose 640 mg/kg
[31] = tested on: Mus musculus; assay: Mean survival time against trophozoite induced Plasmodium berghei in mice minus control was evaluated at a dose 320 mg/kg; 2 survived out of 5 animals at 60 days postinjection.; type: functional, organism-based; set-up: dose 320 mg/kg
[32] = tested on: Mus musculus; assay: Mean survival time against trophozoite induced Plasmodium berghei in mice minus control was evaluated at a dose 160 mg/kg; 4 survived out of 10 animals at 60 days postinjection.; type: functional, organism-based; set-up: dose 160 mg/kg
[33] = tested on: Mus musculus; assay: Mean survival time against trophozoite induced Plasmodium berghei in mice minus control was evaluated at a dose 640 mg/kg; 7 survived out of 10 animals at 60 days postinjection.; type: functional, organism-based; set-up: dose 640 mg/kg
[34] = tested on: Mus musculus; assay: Mean survival time against trophozoite induced Plasmodium berghei in mice minus control was evaluated at a dose 80 mg/kg.; type: functional

CCN(Cc1ccccc1)c1ccc2nc(N)nc(N)c2n1
Delta MST [1]: Toxic Deaths 10/10
Delta MST [2]: 9.7 days
Delta MST [3]: Survivals 5/5
Delta MST [4]: Survivals 4/10
Delta MST [5]: Toxic Deaths 3/5
Delta MST [6]: Toxic Deaths 2/10

CN(Cc1cccc(Br)c1)c1ccc2nc(N)nc(N)c2n1
Delta MST [7]: Survivals 9/15
Delta MST [2]: 9.1 days
Delta MST [8]: Survivals 1/5
Delta MST [9]: Survivals 6/15
Delta MST [10]: Survivals 3/5
Delta MST [11]: 9.8 days

CN(Cc1ccc(C(F)(F)F)cc1)c1ccc2nc(N)nc(N)c2n1
Delta MST [12]: 2.5 days
Delta MST [13]: Survivals 1/5
Delta MST [2]: 8.1 days
Delta MST [14]: 2.9 days
Delta MST [15]: Survivals 4/5
Delta MST [16]: Survivals 8/10

Nc1nc(N)c2nc(N3CCCCC3Cc3ccccc3)ccc2n1 (stereo not drawn)
Delta MST [2]: 3 days
Delta MST [17]: Survivals 5/5
Delta MST [18]: 8.2 days
Delta MST [19]: Survivals 10/10
Delta MST [11]: 4.9 days

CC(c1ccc(Cl)c(Cl)c1)N(C)c1ccc2nc(N)nc(N)c2n1 (stereo not drawn)
Delta MST [20]: 2.3 days
Delta MST [12]: 3.9 days
Delta MST [11]: 1.7 days

CCc1nc(N)nc(N)c1-c1ccc(Cl)cc1 [PYRIMETHAMINE]
Delta MST [21]: Survivals 5
Delta MST [22]: Survivals 1 Toxic Deaths 2
Delta MST [23]: Survivals 2 Toxic deaths 3
Delta MST [2]: 7.7 days
Delta MST [24]: 5.3 days
Delta MST [25]: Survivals 1
Delta MST [26]: 3.1 days
Delta MST [27]: 6.1 days
Delta MST [28]: Survivals 3
Delta MST [29]: 4.7 days

Nc1nc(N)c2nc(N3CCCCC3)ccc2n1
Delta MST [20]: 0.4 days
Delta MST [30]: Toxic Deaths 5/5
Delta MST [11]: 0.3 days

CCN(Cc1ccc(Cl)cc1)c1ccc2nc(N)nc(N)c2n1
Delta MST [20]: 0.9 days
Delta MST [12]: 1.1 days
Delta MST [11]: 0.9 days

Nc1nc(N)c2nc(N3CCCCC3Cc3ccc(Cl)cc3)ccc2n1 (stereo not drawn)
Delta MST [2]: 2.9 days
Delta MST [31]: Survivals 2/5
Delta MST [32]: Survivals 4/10
Delta MST [33]: Survivals 7/10
Delta MST [34]: 9.1 days
Delta MST [11]: 5.1 days
